Results: PubChem BioAssay (NCI)
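All cell lines were grown in 96-well plates and treated with compound for 48 hours. GI50: concentration for 50% inhibition of growth. The concentration for full growth arrest is given as TGI.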

What was measured:
Assay in all cases: NCI tumour cell line growth inhibition, 48 h
[1] = test system: SN12C renal
[2] = test system: MDA-MB-435
[3] = test system: IGROV1 ovarian
[4] = test system: SNB-19 CNS
[5] = test system: CAKI-1 renal
[6] = test system: SK-MEL-2 melanoma
[7] = test system: MALME-3M melanoma
[8] = test system: HCC-2998 colon
[9] = test system: U251 CNS
[10] = test system: SK-OV-3 ovarian
[11] = test system: PC-3 prostate
[12] = test system: OVCAR-4 ovarian
[13] = test system: CCRF-CEM leukemia
[14] = test system: COLO 205 colon
[15] = test system: MOLT-4 leukemia
[16] = test system: SF-539 CNS
[17] = test system: OVCAR-5 ovarian
[18] = test system: KM12 colon
[19] = test system: HOP-62 NSCLC
[20] = test system: T-47D breast
[21] = test system: RXF 393 renal
[22] = test system: SF-268 CNS
[23] = test system: HL-60(TB) leukemia
[24] = test system: SK-MEL-28 melanoma
[25] = test system: HCT-15 colon
[26] = test system: NCI-H522 lung
[27] = test system: A498 renal
[28] = test system: OVCAR-8 ovarian
[29] = test system: HS 578T breast
[30] = test system: HOP-92 NSCLC
[31] = test system: UACC-257 melanoma
[32] = test system: DU-145 prostate
[33] = test system: M14 melanoma
[34] = test system: OVCAR-3 ovarian
[35] = test system: BT-549 breast
[36] = test system: RPMI-8226 leukemia
[37] = test system: SF-295 CNS
[38] = test system: MDA-MB-231 breast
[39] = test system: UO-31 renal
[40] = test system: TK-10 renal
[41] = test system: ACHN renal
[42] = test system: MCF7 breast
[43] = test system: HCT-116 colon
[44] = test system: SW-620 colon
[45] = test system: NCI-H226 lung
[46] = test system: A549 NSCLC
[47] = test system: NCI-H23 lung
[48] = test system: 786-0 renal
[49] = test system: EKVX NSCLC
[50] = test system: SNB-75 CNS
[51] = test system: K-562 leukemia
[52] = test system: NCI-H460 lung
[53] = test system: SK-MEL-5 melanoma
[54] = test system: SR leukemia
[55] = test system: LOX IMVI melanoma
[56] = test system: UACC-62 melanoma
[57] = test system: HT29 colon
[58] = test system: NCI/ADR-RES ovarian

**Q.** Which results are given for `Cc1ccccc1NC(=O)N/C(N)=N/c1nc(C)c(C)s1`?
**A.** GI50 [1]: 1230 nM; TGI [1]: > 100000 nM; GI50 [2]: 33.2 nM; TGI [2]: 468 nM; GI50 [3]: 350 nM; TGI [3]: > 100000 nM; GI50 [4]: 283 nM; TGI [4]: 52700 nM; GI50 [5]: 197 nM; TGI [5]: 97100 nM; GI50 [6]: 610 nM; TGI [6]: > 100000 nM; GI50 [7]: 3540 nM; TGI [7]: > 100000 nM; GI50 [8]: 712 nM; TGI [8]: > 100000 nM; GI50 [9]: 305 nM; TGI [9]: > 46600 nM; GI50 [10]: 596 nM; TGI [10]: > 100000 nM; GI50 [11]: 395 nM; TGI [11]: > 100000 nM; GI50 [12]: 48000 nM; TGI [12]: > 100000 nM; GI50 [13]: 243 nM; TGI [13]: > 100000 nM; GI50 [14]: 295 nM; GI50 [15]: 467 nM; TGI [15]: > 100000 nM; GI50 [16]: 254 nM; TGI [16]: 4380 nM; GI50 [17]: 912 nM; TGI [17]: > 100000 nM; GI50 [18]: 206 nM; TGI [18]: > 100000 nM; GI50 [19]: 404 nM; TGI [19]: > 65600 nM; GI50 [20]: 448 nM; TGI [20]: > 100000 nM; GI50 [21]: 187 nM; TGI [21]: 907 nM; GI50 [22]: 15900 nM; TGI [22]: > 100000 nM; GI50 [23]: 235 nM; TGI [23]: > 100000 nM; GI50 [24]: 23700 nM; TGI [24]: > 100000 nM; GI50 [25]: 64.7 nM; TGI [25]: > 100000 nM; GI50 [26]: 47.8 nM; TGI [26]: > 42500 nM; GI50 [27]: 125 nM; TGI [27]: 803 nM; GI50 [28]: 512 nM; TGI [28]: > 79600 nM; GI50 [29]: 488 nM; TGI [29]: > 100000 nM; GI50 [30]: 30000 nM; TGI [30]: > 100000 nM; GI50 [31]: > 100000 nM; TGI [31]: > 100000 nM; GI50 [32]: 481 nM; TGI [32]: > 100000 nM; GI50 [33]: 121 nM; TGI [33]: > 100000 nM; GI50 [34]: 170 nM; TGI [34]: 13500 nM; GI50 [35]: 1140 nM; TGI [35]: > 100000 nM; GI50 [36]: 390 nM; TGI [36]: > 100000 nM; GI50 [37]: 164 nM; TGI [37]: > 100000 nM; GI50 [38]: 1520 nM; TGI [38]: > 100000 nM; GI50 [39]: 1100 nM; TGI [39]: > 100000 nM; TGI [40]: > 100000 nM; GI50 [41]: 700 nM; TGI [41]: > 57000 nM; GI50 [42]: 142 nM; TGI [42]: > 100000 nM; GI50 [43]: 321 nM; TGI [43]: > 75900 nM; GI50 [44]: 163 nM; TGI [44]: > 100000 nM; GI50 [45]: 2080 nM; TGI [45]: > 100000 nM; GI50 [46]: 545 nM; TGI [46]: > 100000 nM; GI50 [47]: 519 nM; TGI [47]: > 100000 nM; GI50 [48]: 652 nM; TGI [48]: > 100000 nM; GI50 [49]: 542 nM; TGI [49]: > 100000 nM; GI50 [50]: 175 nM; TGI [50]: 754 nM; GI50 [51]: 42.9 nM; TGI [51]: > 100000 nM; GI50 [52]: 376 nM; TGI [52]: > 100000 nM; GI50 [53]: 282 nM; TGI [53]: > 100000 nM; GI50 [54]: 43.8 nM; TGI [54]: > 100000 nM; GI50 [55]: 444 nM; TGI [55]: > 100000 nM; GI50 [56]: 179 nM; TGI [56]: > 100000 nM; GI50 [57]: 104 nM; TGI [57]: > 33000 nM; GI50 [58]: 89 nM; TGI [58]: 15800 nM
